Laboratory results published in patent US20190070128A1, “USE OF CANNABIDIVARIN IN THE TREATMENT OF AUTISM SPECTRUM DISORDER, ASSOCIATED DISORDERS AND SCHIZOPHRENIA” (GW Research Limited, priority 2016, published 2019).
Entries after “also recorded” stand apart in the source; their conditions may differ.

What was measured:
Fmr1 KO and WT mice = assay: susceptibility to audiogenic seizures in Fmr1 KO and WT mice (PND21); format: in vivo, mouse; details: for audiogenic seizures: FXS mice
Procedure: This trait was evaluated in PND21 mice after acute administration of the compounds or its vehicle, 30 min before starting the procedure. To measure audiogenic seizure sensitivity mice were placed individually into a novel environment, a glass cylinder (40 cm high, 16 cm diameter) and allowed to explore for 1 min. Next, a bell (100 dB) was rung for 30 sec and seizure activity scored according to the following scale: no response, 0; wild running, 1; clonic seizure, 2; tonic seizure, 3; status epilepticus/respiratory arrest/death, 4.
On postnatal day 21 (PND21) WT and Fmr1 KO mice were injected with CBDV (2, 10, 20 or 100 mg/kg) or vehicle, 30 min before exposure to a bell ring (100 dB). Mice exposed to this noise for 30 sec ceased from their normal exploratory behaviour and reacted with gradually to wild-running, clonic seizure, tonic seizure or death. The maximum response was annotated for each mouse as detailed in Table 2 below. A score was calculated according to the severity of the symptoms as explained in the Methods section.

MeCP2 KO mice = assay: Novel Object Recognition (NOR) test in MeCP2 KO mice; format: in vivo, mouse
Procedure: Furthermore, the efficacy of CBDV in reverting/attenuating the short- and long-term memory deficits present in these mice was evaluated. The Novel Object Recognition (NOR) test was performed before the starting of the treatment Post Natal Day 28 (PND 28), at PND 41 when the first motor symptoms appear and at PND 56 and 66 when the disease is fully manifested.
At PND 28, 41, 56 and 66 the effect of CBDV on short- and long-term memory deficits was investigated through the Novel Object Recognition (NOR) test.
The experimental apparatus used for the Novel Object Recognition test was an open-field box (43×43×32 cm) made of Plexiglas, placed in a dimly illuminated room. Animals performed each test individually.
Briefly, each animal was placed in the arena and allowed to explore two identical previously unseen objects for 10 minutes (familiarization phase). After an inter-trial interval of 30 minutes and 24 hours one of the two familiar objects was replaced by a novel, previously unseen object and mice were returned to the arena for the 10-minute test phase.
During the test phase the time spent exploring the familiar object (Ef) and the new object (En) was recorded separately by two observers blind to the groups and the discrimination index was calculated as follows: [(En−Ef)/(En+Ef)]×100.

Ube3am-/p+ (AS) mice = assay: novel object recognition in Angelman syndrome mice; format: in vivo, mouse; details: 20 mg/kg i.p., age 7-8 weeks, vs AS vehicle
Procedure: Heterozygous mice with maternal deficiency of Ube3A (Ube3am−/p+) and wild type (Ube3am+/p+) were purchased from The Jackson Laboratory (Jackson code: B6.12957-Ube3a tm1Alb/J) and maintained in a C57BL/6 background.
Drugs were dissolved in 1:1:18 ethanol:cremophor:0.9% saline, for intraperitoneal (i.p.) administration. Drug treatment was performed daily for 35 days. CBDV was administered at 20 mg/kg.
Novel Object Recognition: The novel object recognition assesses recognition memory in mice. The experiment started with the habituation period, during which mice were allowed to freely explore for 1 hour the apparatus which consists of a rectangular open box (40×30×30 cm width×length×height) made of grey polyvinyl chloride (PVC) illuminated by a dim light. The day after each mouse was allowed to explore two identical objects positioned in the back left and right corners for 5 min (acquisition). A video camera recorded the time spent on exploration of each object. […] The behaviour of mice was analyzed by an observer blind to the treatment. Data are expressed as percentage of recognition index (RI %), which was calculated as the percentage of the time spent exploring the novel object/time spent exploring the novel object+time spent exploring the familiar object×100.

hCB1 = hCB1 (Homo sapiens, UniProt P21554); details: cited from earlier work
Sequence of hCB1 (P21554 whole entry): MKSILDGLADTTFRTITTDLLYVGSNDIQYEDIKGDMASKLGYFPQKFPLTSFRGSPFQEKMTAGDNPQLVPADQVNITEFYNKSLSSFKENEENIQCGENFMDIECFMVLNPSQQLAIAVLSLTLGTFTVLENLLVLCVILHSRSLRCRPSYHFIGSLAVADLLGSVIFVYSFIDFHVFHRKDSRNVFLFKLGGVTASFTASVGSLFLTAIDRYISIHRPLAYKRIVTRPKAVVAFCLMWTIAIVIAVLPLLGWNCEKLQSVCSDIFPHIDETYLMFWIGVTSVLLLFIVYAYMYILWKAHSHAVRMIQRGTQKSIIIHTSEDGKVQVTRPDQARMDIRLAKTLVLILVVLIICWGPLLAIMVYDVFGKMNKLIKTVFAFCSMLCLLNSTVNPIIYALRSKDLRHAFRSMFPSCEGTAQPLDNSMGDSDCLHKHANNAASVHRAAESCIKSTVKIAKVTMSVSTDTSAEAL

animal models of seizure = details: in vivo; cited from earlier work
[1] = WT, CBDV 2 mg/kg, n = 6, acute (30 min)
[2] = WT, CBDV 10 mg/kg, n = 5, acute (30 min)
[3] = WT, CBDV 20 mg/kg, n = 6, acute (30 min)
[4] = WT, CBDV 100 mg/kg, n = 6, acute (30 min)

C=C(C)[C@@H]1CCC(C)=C[C@H]1c1c(O)cc(CCC)cc1O [CBDV, Cannabidivarin]
audiogenic seizures, maximum response: Clonic seizure (Fmr1 KO and WT mice; 2 mg/kg, 0.5 h): 0
audiogenic seizures, maximum response: No response (Fmr1 KO and WT mice; 2 mg/kg, 0.5 h): 2
audiogenic seizures, maximum response: Tonic seizure (Fmr1 KO and WT mice; 2 mg/kg, 0.5 h): 2
audiogenic seizures, maximum response: Wild running (Fmr1 KO and WT mice; 2 mg/kg, 0.5 h): 1
audiogenic seizures, maximum response: Clonic seizure (Fmr1 KO and WT mice; 10 mg/kg, 0.5 h): 0
audiogenic seizures, maximum response: No response (Fmr1 KO and WT mice; 10 mg/kg, 0.5 h): 0
audiogenic seizures, maximum response: Tonic seizure (Fmr1 KO and WT mice; 10 mg/kg, 0.5 h): 2
audiogenic seizures, maximum response: Wild running (Fmr1 KO and WT mice; 10 mg/kg, 0.5 h): 3
audiogenic seizures, maximum response: Clonic seizure (Fmr1 KO and WT mice; 20 mg/kg, 0.5 h): 0
audiogenic seizures, maximum response: No response (Fmr1 KO and WT mice; 20 mg/kg, 0.5 h): 2
audiogenic seizures, maximum response: Tonic seizure (Fmr1 KO and WT mice; 20 mg/kg, 0.5 h): 2
audiogenic seizures, maximum response: Wild running (Fmr1 KO and WT mice; 20 mg/kg, 0.5 h): 1
audiogenic seizures, maximum response: Clonic seizure (Fmr1 KO and WT mice; 100 mg/kg, 0.5 h): 0
audiogenic seizures, maximum response: No response (Fmr1 KO and WT mice; 100 mg/kg, 0.5 h): 5
audiogenic seizures, maximum response: Tonic seizure (Fmr1 KO and WT mice; 100 mg/kg, 0.5 h): 0
audiogenic seizures, maximum response: Wild running (Fmr1 KO and WT mice; 100 mg/kg, 0.5 h): 0
audiogenic seizures, maximum response: Death (Fmr1 KO and WT mice; FXS (Fmr1 KO), CBDV 2 mg/kg, n = 5, acute (30 min)): 0
audiogenic seizures, maximum response: Death (Fmr1 KO and WT mice; FXS (Fmr1 KO), CBDV 10 mg/kg, n = 5, acute (30 min)): 0
audiogenic seizures, maximum response: Death (Fmr1 KO and WT mice; FXS (Fmr1 KO), CBDV 20 mg/kg, n = 5, acute (30 min)): 0
audiogenic seizures, maximum response: Death (Fmr1 KO and WT mice; FXS (Fmr1 KO), CBDV 100 mg/kg, n = 5, acute (30 min)): 0
audiogenic seizures (Fmr1 KO and WT mice; 100 mg/kg acute, 100 mg/kg): remained seizure free; also recorded: completely eliminate the seizures
audiogenic seizures (Fmr1 KO and WT mice; lower doses): seizures of varying severity
audiogenic seizures, maximum response: Clonic seizure (Fmr1 KO and WT mice; [1]): 0
audiogenic seizures, maximum response: Death (Fmr1 KO and WT mice; [1]): 0
audiogenic seizures, maximum response: No response (Fmr1 KO and WT mice; [1]): 6
audiogenic seizures, maximum response: Tonic seizure (Fmr1 KO and WT mice; [1]): 0
audiogenic seizures, maximum response: Wild running (Fmr1 KO and WT mice; [1]): 0
audiogenic seizures, maximum response: Clonic seizure (Fmr1 KO and WT mice; [2]): 0
audiogenic seizures, maximum response: Death (Fmr1 KO and WT mice; [2]): 0
audiogenic seizures, maximum response: No response (Fmr1 KO and WT mice; [2]): 5
audiogenic seizures, maximum response: Tonic seizure (Fmr1 KO and WT mice; [2]): 0
audiogenic seizures, maximum response: Wild running (Fmr1 KO and WT mice; [2]): 0
audiogenic seizures, maximum response: Clonic seizure (Fmr1 KO and WT mice; [3]): 0
audiogenic seizures, maximum response: Death (Fmr1 KO and WT mice; [3]): 0
audiogenic seizures, maximum response: No response (Fmr1 KO and WT mice; [3]): 5
audiogenic seizures, maximum response: Tonic seizure (Fmr1 KO and WT mice; [3]): 0
audiogenic seizures, maximum response: Wild running (Fmr1 KO and WT mice; [3]): 1
audiogenic seizures, maximum response: Clonic seizure (Fmr1 KO and WT mice; [4]): 0
audiogenic seizures, maximum response: Death (Fmr1 KO and WT mice; [4]): 0
audiogenic seizures, maximum response: No response (Fmr1 KO and WT mice; [4]): 6
audiogenic seizures, maximum response: Tonic seizure (Fmr1 KO and WT mice; [4]): 0
audiogenic seizures, maximum response: Wild running (Fmr1 KO and WT mice; [4]): 0
cognitive impairment in short-term memory (MeCP2 KO mice; MeCP2 KO mice, 2, 20 and 200 mg/kg, each time point (PND 41, 56, 66), 30 minutes interval): significantly reverted
cognitive impairment in long-term memory (MeCP2 KO mice; MeCP2 KO mice, all three doses, 24 hours interval): significantly counteract
recognition memory (long-term) (MeCP2 KO mice; WT littermates): without affecting
recognition memory (short-term) (MeCP2 KO mice; WT littermates): without affecting
discrimination index (Ube3am-/p+ (AS) mice): significantly increased
affinity for the CB1 receptor (hCB1): low affinity
effect in animal models of seizure (animal models of seizure): effective
